# Values quoted from earlier work in patent US8425924B2, “Propylene compositions containing a pyrethroid and products made therefrom” (ExxonMobil Chemical Patents Inc., priority 2009, dated 2013).
# Conditions: thermal stability of the pyrethroid
row,SMILES,stable up to a temperature
1,CC1(C)[C@H](C(=O)O[C@H](C#N)c2cccc(Oc3ccccc3)c2)[C@@H]1C=C(Br)Br [deltamethrin],up to 320 °C
2,C=CCC1=C(C)C(OC(=O)[C@@H]2[C@@H](C=C(C)C)C2(C)C)CC1=O (some centres unmarked) [allethrin I],more than 400 °C
